Like-named read-outs stand apart in the source and are kept apart here.
Experiments:
[1] = test system: multiple myeloma cell line U266B1; assay: U266 Cell Viability Assay; format: cell-based, human; details: 48 hr
How it was run: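 U266B1 myeloma cells in RPMI 1640 with 10% FBS were treated with compound dilutions for 48 h at 37° C, 5% CO2. Viability was read as CellTiter-Glo luminescence. Data for structures drawn without stereochemistry refer to stereoisomer mixtures.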

[2] = test system: full length IL-2 (amino acids 1-153) fused to Gaussia Luciferase; assay: Dox Induced IL2-FL-Gluc Assay; format: cell-based; details: 24 hr, read-out: 24 hr Dox Inducible IL2FLGluc 293FRT/TO: Mean IC50
How it was run: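 Flp-In 293 T-REx stable line expressing full-length IL-2 (aa 1-153) with C-terminal Gaussia luciferase fusion under doxycycline-inducible control. Cells plated the day before; compound dilutions added in DMSO/media containing doxycycline, incubated at 37° C, 5% CO2.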

[3] = In Vitro Microsome Stability Assay (mouse); format: in vitro ADME
How it was run: (§1)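 Species liver microsomes in potassium phosphate buffer were preincubated at 37 °C for 3–5 min with test compound (added from 0.25 mM DMSO stock), then started with NADPH. Samples at 0 and 30 min were quenched with acetonitrile containing internal standard and analysed by LC-MS/MS; % remaining at 30 min used analyte/IS AUC ratios relative to t=0.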

[4] = In Vitro Microsome Stability Assay (monkey); format: in vitro ADME
How it was run: as §1

[5] = test system: multiple myeloma cell line NCl-H929; assay: H929 Cell Viability Assay; format: cell-based, human
How it was run: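 NCI-H929 myeloma cells in RPMI 1640 with 10% FBS were treated with compound dilutions for 48 h at 37 °C, and viability was then read by CellTiter-Glo luminescence. Compounds drawn without stereochemistry were tested as stereoisomer mixtures.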

[6] = test system: PD1 signal sequence plus 10 amino acids fused to Gaussia Luciferase (PD1-ss+10aa/Gaussia Luciferase); assay: Dox Induced PD1-ss-Gluc Assay; format: cell-based; details: 24 hr, read-out: 24 hr Dox Inducible PD1ssGluc 293FRT/TO: Mean IC50
How it was run: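 Stable Flp-In 293 T-REx line expressing the fusion under tetracycline-inducible control, plated the day before assay. Compound dilutions added with doxycycline and incubated at 37 °C, 5% CO2; unspecified stereocentres mean data refer to stereoisomer mixtures.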

[7] = In Vitro Microsome Stability Assay (human); format: in vitro ADME
How it was run: as §1

[8] = In Vitro Microsome Stability Assay (rat); format: in vitro ADME
How it was run: as §1

[9] = test system: full length TNFα (amino acids 1-233) fused to Gaussia Luciferase; assay: Dox Induced TNFα-FL-Gluc Assay; format: cell-based; details: 24 hr, read-out: 24 hr Dox Inducible TNFaFLGluc 293FRT/TO: Mean IC50
How it was run: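 Stable Flp-In 293 T-REx line expressing doxycycline-inducible full-length TNFα fused to Gaussia luciferase; cells plated the day before, then treated with compound dilutions in doxycycline-containing medium at 37° C, 5% CO2. Unspecified stereocentres mean stereoisomer mixtures were tested.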

[10] = Homo sapiens, U-266, U266, Celltiter-Glo
[11] = mouse liver microsomes, 30 min w/ NADPH
[12] = monkey liver microsomes, 30 min w/ NADPH
[13] = Homo sapiens, NCI-H929, 48 h, H929, Celltiter-Glo
[14] = human liver microsomes, 30 min w/ NADPH
[15] = rat liver microsomes, 30 min w/ NADPH

Structure (SMILES) | EC50 [1, 10] | IC50 ([2]; Dox inducible, 293FRT/TO cells) | Liver Microsome Stability-% Left after 30 min w/ NADPH (%) Mouse [3, 11] | Liver Microsome Stability-% Left after 30 min w/ NADPH (%) Monkey [4, 12] | EC50 [5, 13] | IC50 ([6]; Dox inducible, 293FRT/TO cells) | Liver Microsome Stability-% Left after 30 min w/ NADPH (%) Human [7, 14] | Liver Microsome Stability-% Left after 30 min w/ NADPH (%) Rat [8, 15] | IC50 ([9]; Dox inducible, 293FRT/TO cells) | EC50 ([1]; Homo sapiens, U-266, U266, read-out: 48 hr U266 Viability Celltiter-Glo: Mean EC50) | IC50 ([2]; 293FRT/TO) | Liver Microsome Stability-% Left after 30 min w/ NADPH (%) Mouse ([3]; mouse, 30 min, NADPH) | Liver Microsome Stability-% Left after 30 min w/ NADPH (%) Monkey ([4]; monkey, 30 min, NADPH) | EC50 ([5]; Homo sapiens, NCI-H929, 48 h, H929, read-out: 48 hr H929 Viability Celltiter-Glo: Mean EC50) | IC50 ([6]; 293FRT/TO) | Liver Microsome Stability-% Left after 30 min w/ NADPH (%) Human ([7]; human, 30 min, NADPH) | Liver Microsome Stability-% Left after 30 min w/ NADPH (%) Rat ([8]; rat, 30 min, NADPH) | IC50 ([9]; 293FRT/TO) | EC50 ([1]; U266, Celltiter-Glo) | EC50 ([5]; 48 hr, H929, Celltiter-Glo)
C[C@H]1CN(S(=O)(=O)c2ccc(N(C)C)cc2)CCCN(CCC2CCCCC2)CCCN(S(=O)(=O)N2CCc3cc(Cl)ccc3C2)C1 [A134, 4-{[(3S)-5-[(6-chloro-1,2,3,4-tetrahydroisoquinolin-2-yl)sulfonyl]-9-(2-cyclohexylethyl)-3-methyl-1,5,9-triazacyclododecan-1-yl]sulfonyl}-N,N-dimethylaniline] | > 25 µM | 0.0273 µM | 27.9% | 9.76% | 0.541 µM | 0.011 µM | 31.9% | 41.3% | 0.309 µM | – | – | – | – | – | – | – | – | – | – | –
C[C@@H]1CN(CC2CCCCC2)C[C@@H](C)CN(S(=O)(=O)N2CCc3cc(Cl)ccc3C2)C[C@@H](C)CN(S(=O)(=O)c2ccc(N(C)C)cc2)C1 [A164] | > 25 µM | 0.974 µM | 69.0% | 40.9% | > 25 µM | 0.455 µM | 64.8% | 57.9% | > 25 µM | – | – | – | – | – | – | – | – | – | – | –
C[C@H]1CN(S(=O)(=O)c2ccc(N(C)C)cc2)CCCCN(S(=O)(=O)N2CCc3cc(Cl)ccc3C2)C1 [B21] | > 25 µM | > 25 µM | 0.16% | 0.03% | > 25 µM | 3.95 µM | 0.17% | 0.06% | > 25 µM | – | – | – | – | – | – | – | – | – | – | –
C[C@H]1CN(S(=O)(=O)c2ccc(N(C)C)cc2)CCCN(CC2CC(F)(F)C2)CCCN(S(=O)(=O)N2CCc3cc(Cl)ccc3C2)C1 [A169, 4-{[(3S)-5-[(6-chloro-1,2,3,4-tetrahydroisoquinolin-2-yl)sulfonyl]-9-[(3,3-difluorocyclobutyl)methyl]-3-methyl-1,5,9-triazacyclododecan-1-yl]sulfonyl}-N,N-dimethylaniline] | > 25 µM | 0.192 µM | 22.5% | 4.23% | 3.27 µM | 0.0815 µM | 34.7% | 13.1% | 1.05 µM | – | – | – | – | – | – | – | – | – | – | –
C[C@H]1CN(S(=O)(=O)c2ccc3oncc3c2)CCCN(CC2CCCCC2)CCCN(S(=O)(=O)N2CCc3cc(Cl)ccc3C2)C1 [A180] | > 25 µM | 13.8 µM | 0.44% | 0.08% | 20.2 µM | 2.74 µM | 0.80% | 1.97% | > 25 µM | – | – | – | – | – | – | – | – | – | – | –
C[C@H]1CN(S(=O)(=O)c2ccc(N(C)C)cc2)CCCN(CC2=CCCC2)CCCN(S(=O)(=O)N2CCc3cc(Cl)ccc3C2)C1 [A142] | > 25 µM | 0.067 µM | 16% | 3.89% | 1.45 µM | 0.0382 µM | 11.8% | 22.6% | 0.741 µM | – | – | – | – | – | – | – | – | – | – | –
C[C@@H]1CCN(S(=O)(=O)c2ccc(N(C)C)cc2)CCCN(CC2CCCCC2)CCCN1S(=O)(=O)N1CCc2cc(Cl)ccc2C1 [A148, 4-{[(4 R)-5-[(6-chloro-1,2,3,4-tetrahydroisoquinolin-2-yl)sulfonyl]-9-(cyclohexylmethyl)-4-methyl-1,5,9-triazacyclododecan-1-yl]sulfonyl}-N,N-dimethylaniline] | > 25 µM | 1.12 µM | 1.59% | 0.67% | > 25 µM | 0.926 µM | 0.52% | 1.29% | > 25 µM | – | – | – | – | – | – | – | – | – | – | –
CC(C)N1CCCN(S(=O)(=O)c2ccc(N(C)C)cc2)C[C@H](C)CN(S(=O)(=O)N2CCc3cc(Cl)ccc3C2)CCC1 [A141, 4-{[(3S)-5-[(6-chloro-1,2,3,4-tetrahydroisoquinolin-2-yl)sulfonyl]-3-methyl-9-(propan-2-yl)-1,5,9-triazacyclododecan-1-yl]sulfonyl}-N,N-dimethylaniline] | > 25 µM | 0.863 µM | 0.48% | 0.66% | 9.11 µM | 0.431 µM | 0.26% | 1.14% | 4.24 µM | – | – | – | – | – | – | – | – | – | – | –
C[C@H]1CN(S(=O)(=O)c2ccc(N(C)C)cc2)CCCN(CC2CCCCC2)CCCN(S(=O)(=O)N2CCN(c3cccc(F)c3)CC2)C1 [A95, 4-{[(3S)-9-(cyclohexylmethyl)-5-{[4-(3-fluorophenyl)piperazin-1-yl]sulfonyl}-3-methyl-1,5,9-triazacyclododecan-1-yl]sulfonyl}-N,N-dimethylaniline] | – | – | – | – | – | – | – | – | – | > 25 µM | 0.391 µM | 54.2% | 46.1% | 6.71 µM | 0.198 µM | 43.9% | 43.1% | 4.9 µM | – | –
Cc1cc(F)ccc1N1CCN(S(=O)(=O)N2CCCN(CC3CCCCC3)CCCN(S(=O)(=O)c3ccc(N(C)C)cc3)C[C@H](C)C2)C(C)C1 (stereo in doubt) [A163, 4-{[(3S)-9-(cyclohexylmethyl)-5-{[(2 R)-4-(4-fluoro-2-methylphenyl)-2-methylpiperazin-1-yl]sulfonyl}-3-methyl-1,5,9-triazacyclododecan-1-yl]sulfonyl}-N,N-dimethylaniline] | – | 0.0812 µM | 72.8% | 57.5% | – | 0.0556 µM | 64.2% | 54.9% | 1.93 µM | – | – | – | – | – | – | – | – | – | > 25 µM | 13.6 µM

Source: patent publication US11578055B2, “Triazacyclododecansulfonamide (“TCD”)-based protein secretion inhibitors” (KEZAR LIFE SCIENCES, priority 2018, dated 2023)
